The record followed here is patent US20130109682A1, “CYCLIC ETHER COMPOUNDS USEFUL AS KINASE INHIBITORS” (NOVARTIS AG, priority 2010, published 2013).

For one assay, the target named is cABLT315 kinase (Homo sapiens, UniProt P00519). Put plainly: cABLT315 kinase Caliper assay. The format is biochemical. The following applies: Caliper assay. The protocol:
PKCα and cABLT315 Kinase Caliper Assays
Assays were performed in 384 well microtiter plates. Each assay plate contained 8-point serial dilutions for test compounds, as well as two 16-point serial dilutions of staurosporine as reference compound, plus 16 high- and 16 low controls. Liquid handling and incubation steps were done on a Thermo CatX workstation equipped with a Innovadyne Nanodrop Express. Between pipetting steps, tips were cleaned in wash cycles using wash buffer. Plates with terminated kinase reactions were transferred to the Caliper LC3000 workstations for reading. Phosphorylated and unphosphorylated peptides were separated using the Caliper microfluidic mobilitishift technology and Kinase activities were calculated from the amounts of formed phospho-peptide.
Kinase reactions were prepared in 384 low volume plates by the following sequence:
1. 0.05 μA Compound (start with 1.8 mM in 90% DMSO/10% H2O)
2. +4.5 μl 2× peptide/ATP solution
3. +4.5 μl 2× enzyme solution
4. Incubate for 60 min at 30° C.
4. +16 μl stop/run buffer
Independent of the kinase, all reactions were done performed in 50 mM HEPES, pH 7.5, 1 mM DTT, 0.02% Tween20, 0.02% BSA, and 0.6% DMSO. For cABLT315 assay specific details were as follows: [cABLT315 kinase]=2.4 nM, [ATP]=10 uM, [peptide]=2 uM, [Mg]=10 mM. For PKCα, assay specific details were as follows: [kinase]=0.012 nM, [ATP]=17 uM, [peptide]=1 uM, [Mg]=7 mM, [Ca]=0.2 mM.

Another assay has as its target T1, FLT3D835Y kinase (Homo sapiens, UniProt P36888, D835Y).
T1 sequence (P36888 27-993 D835Y): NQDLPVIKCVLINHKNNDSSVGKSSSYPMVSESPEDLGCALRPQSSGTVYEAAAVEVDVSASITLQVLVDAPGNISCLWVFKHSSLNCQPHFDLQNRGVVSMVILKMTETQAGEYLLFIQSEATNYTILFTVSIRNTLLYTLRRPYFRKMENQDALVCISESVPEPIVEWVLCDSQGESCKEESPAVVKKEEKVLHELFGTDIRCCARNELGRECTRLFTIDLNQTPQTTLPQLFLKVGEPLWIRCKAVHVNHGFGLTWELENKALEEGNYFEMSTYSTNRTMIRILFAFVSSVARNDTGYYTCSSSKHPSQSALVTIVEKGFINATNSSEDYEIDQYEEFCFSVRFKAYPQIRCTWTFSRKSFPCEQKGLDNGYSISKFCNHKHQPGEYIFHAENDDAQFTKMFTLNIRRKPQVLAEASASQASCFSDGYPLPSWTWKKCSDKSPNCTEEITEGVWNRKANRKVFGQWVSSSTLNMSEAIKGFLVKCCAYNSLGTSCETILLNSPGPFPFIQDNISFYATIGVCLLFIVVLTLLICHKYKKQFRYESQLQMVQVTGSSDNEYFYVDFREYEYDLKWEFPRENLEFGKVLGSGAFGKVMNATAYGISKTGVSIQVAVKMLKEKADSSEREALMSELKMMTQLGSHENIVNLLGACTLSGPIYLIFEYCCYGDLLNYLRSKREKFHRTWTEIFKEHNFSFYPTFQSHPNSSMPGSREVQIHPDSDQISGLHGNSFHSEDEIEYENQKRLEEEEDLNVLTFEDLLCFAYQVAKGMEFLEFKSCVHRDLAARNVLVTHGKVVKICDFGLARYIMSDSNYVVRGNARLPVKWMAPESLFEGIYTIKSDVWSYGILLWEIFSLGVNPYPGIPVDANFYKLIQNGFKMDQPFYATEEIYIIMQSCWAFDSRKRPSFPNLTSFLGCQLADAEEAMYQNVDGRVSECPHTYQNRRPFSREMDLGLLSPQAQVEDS
Description: FLT3D835Y kinase inhibition assay (LanthaScreen TR-FRET). In kind it is biochemical. The following applies: read-out: FLT3 IC50. Summed up: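 TR-FRET with 5.7 nM FLT3D835Y, 50 nM polyEAY substrate, 2 μM ATP (f.c.), 3 mM Mg and 3 mM Mn in 50 mM TRIS-HCl pH 7.4 with DTT, Tween 20 and Na3VO4. Reaction 1 h, stopped with EDTA, then Tb-labeled P-20 antibody for 45 min; single end-point reading.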
In general terms: Time-resolved FRET reads energy transfer from a long-lived donor to a nearby acceptor.

In general, IC50 refers to the midpoint of a concentration-inhibition curve. As for `N[C@@H]1C[C@H](c2ccncc2NC(=O)c2ccc(F)c(-c3c(F)cccc3F)n2)O[C@@H]2CCC[C@H]12` [Example 224, N-(4-((2R,4R,4aR,7aR)-4-aminooctahydrocyclopenta[b]pyran-2-yl)pyridin-3-yl)-6-(2,6-difluorophenyl)-5-fluoropicolinamide], the IC50 is over 10000 nM on cABLT315 kinase and 1600 nM at FLT3D835Y kinase.
